PubChem BioAssay (NCI)
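Cells were grown in 96-well plates and exposed to each compound for 48 hours at five concentrations; endpoints were interpolated linearly between bracketing concentrations, or set to the highest concentration if not reached. At the TGI there is no net growth.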

What was measured:
Assay in all cases: inhibition of tumour cell growth, NCI panel, 48 h
K-562 leukemia = tested on: K-562 leukemia
HOP-62 NSCLC = tested on: HOP-62 NSCLC
HCC-2998 colon = tested on: HCC-2998 colon
786-0 renal = tested on: 786-0 renal
MOLT-4 leukemia = tested on: MOLT-4 leukemia
ACHN renal = tested on: ACHN renal
MALME-3M melanoma = tested on: MALME-3M melanoma
OVCAR-3 ovarian = tested on: OVCAR-3 ovarian
DMS 114 small cell lung = tested on: DMS 114 small cell lung
NCI-H23 lung = tested on: NCI-H23 lung
SR leukemia = tested on: SR leukemia
DMS 273 small cell lung = tested on: DMS 273 small cell lung
UO-31 renal = tested on: UO-31 renal
EKVX NSCLC = tested on: EKVX NSCLC
SNB-75 CNS = tested on: SNB-75 CNS
SK-MEL-2 melanoma = tested on: SK-MEL-2 melanoma
SK-MEL-5 melanoma = tested on: SK-MEL-5 melanoma
NCI-H226 lung = tested on: NCI-H226 lung
A498 renal = tested on: A498 renal
SN12C renal = tested on: SN12C renal
OVCAR-4 ovarian = tested on: OVCAR-4 ovarian
DLD-1 colon = tested on: DLD-1 colon
SNB-78 CNS = tested on: SNB-78 CNS
HOP-92 NSCLC = tested on: HOP-92 NSCLC
OVCAR-8 ovarian = tested on: OVCAR-8 ovarian
HL-60(TB) leukemia = tested on: HL-60(TB) leukemia
SF-268 CNS = tested on: SF-268 CNS
SNB-19 CNS = tested on: SNB-19 CNS
SK-MEL-28 melanoma = tested on: SK-MEL-28 melanoma
A549 NSCLC = tested on: A549 NSCLC
CCRF-CEM leukemia = tested on: CCRF-CEM leukemia
RXF-631 renal = tested on: RXF-631 renal
LOX IMVI melanoma = tested on: LOX IMVI melanoma
SF-295 CNS = tested on: SF-295 CNS
RXF 393 renal = tested on: RXF 393 renal
COLO 205 colon = tested on: COLO 205 colon
CAKI-1 renal = tested on: CAKI-1 renal
KM12 colon = tested on: KM12 colon
HCT-15 colon = tested on: HCT-15 colon
IGROV1 ovarian = tested on: IGROV1 ovarian
SW-620 colon = tested on: SW-620 colon
UACC-62 melanoma = tested on: UACC-62 melanoma
LXFL 529 NSCLC = tested on: LXFL 529 NSCLC
UACC-257 melanoma = tested on: UACC-257 melanoma
KM20L2 colon = tested on: KM20L2 colon
U251 CNS = tested on: U251 CNS
HCT-116 colon = tested on: HCT-116 colon
NCI-H460 lung = tested on: NCI-H460 lung
M14 melanoma = tested on: M14 melanoma
SK-OV-3 ovarian = tested on: SK-OV-3 ovarian
OVCAR-5 ovarian = tested on: OVCAR-5 ovarian
HOP-18 NSCLC = tested on: HOP-18 NSCLC
TK-10 renal = tested on: TK-10 renal
SF-539 CNS = tested on: SF-539 CNS
NCI-H522 lung = tested on: NCI-H522 lung
HT29 colon = tested on: HT29 colon
M19-MEL melanoma = tested on: M19-MEL melanoma
XF 498 CNS = tested on: XF 498 CNS
RPMI-8226 leukemia = tested on: RPMI-8226 leukemia

In the case of `CN(C)CCNC(=O)c1ccc(C(=O)NCCN(C)C)c2nc3ccccc3cc12`, the TGI (K-562 leukemia) is reported as greater than 30 µM, the TGI (HOP-62 NSCLC) is reported as 4.45 µM and the TGI (HCC-2998 colon) is reported as 2.98 µM. It also gave a TGI (786-0 renal) of 13.8 µM, a TGI (MOLT-4 leukemia) of 1.56 µM and a TGI (ACHN renal) of 8.58 µM. The TGI (MALME-3M melanoma) was 2.97 µM, the TGI (OVCAR-3 ovarian) was 9.91 µM and the TGI (DMS 114 small cell lung) was 2.16 µM. For the same molecule, the TGI (NCI-H23 lung) was 3.8 µM, the TGI (SR leukemia) was 2.49 µM and the TGI (DMS 273 small cell lung) was 4.76 µM. It also gave a TGI (UO-31 renal) of 18 µM, a TGI (EKVX NSCLC) of 6.89 µM and a TGI (SNB-75 CNS) of 3.46 µM. The TGI (SK-MEL-2 melanoma) was 2.57 µM, the TGI (SK-MEL-5 melanoma) was 4.34 µM and the TGI (NCI-H226 lung) was 3.6 µM. It also gave a TGI (A498 renal) of 3.93 µM, a TGI (SN12C renal) of 8.96 µM and a TGI (OVCAR-4 ovarian) of 3.52 µM. The TGI (DLD-1 colon) was 5.28 µM, the TGI (SNB-78 CNS) was 12.7 µM and the TGI (HOP-92 NSCLC) was 7.99 µM. It also gave a TGI (OVCAR-8 ovarian) of 12.7 µM, a TGI (HL-60(TB) leukemia) of 9.5 µM and a TGI (SF-268 CNS) of 6.79 µM. For the same molecule, the TGI (SNB-19 CNS) was 11.3 µM, the TGI (SK-MEL-28 melanoma) was 3.89 µM and the TGI (A549 NSCLC) was 13 µM. It also gave a TGI (CCRF-CEM leukemia) of 10.2 µM, a TGI (RXF-631 renal) of 14.8 µM and a TGI (LOX IMVI melanoma) of 3.15 µM. The TGI (SF-295 CNS) was 16.4 µM, the TGI (RXF 393 renal) was 2.09 µM and the TGI (COLO 205 colon) was 2.39 µM. It also gave a TGI (CAKI-1 renal) of 9.09 µM, a TGI (KM12 colon) of 4.14 µM and a TGI (HCT-15 colon) of 16.9 µM. The TGI (IGROV1 ovarian) was greater than 50.2 µM, the TGI (SW-620 colon) was 9.56 µM and the TGI (UACC-62 melanoma) was 2.38 µM. For the same molecule, the TGI (LXFL 529 NSCLC) was 12.3 µM, the TGI (UACC-257 melanoma) was 4.47 µM and the TGI (KM20L2 colon) was 10.3 µM. The TGI (U251 CNS) was 7.85 µM, the TGI (HCT-116 colon) was 6.08 µM and the TGI (NCI-H460 lung) was 2.79 µM. The TGI (M14 melanoma) was 3.44 µM, the TGI (SK-OV-3 ovarian) was 7.5 µM and the TGI (OVCAR-5 ovarian) was 3.78 µM. The TGI (HOP-18 NSCLC) was 25.4 µM, the TGI (TK-10 renal) was 5.08 µM and the TGI (SF-539 CNS) was 2.01 µM. For the same molecule, the TGI (NCI-H522 lung) was 1.93 µM, the TGI (HT29 colon) was 6.15 µM and the TGI (M19-MEL melanoma) was 2.35 µM.

With `COc1ccc(C2=NN(C(=O)COc3ccc(Cl)cc3)C(O)(c3ccc(Cl)cc3)C2)cc1` (centres undefined) the TGI (K-562 leukemia) was greater than 100 µM, the TGI (HOP-62 NSCLC) was greater than 100 µM and the TGI (HCC-2998 colon) was greater than 100 µM. The TGI (786-0 renal) was greater than 100 µM, the TGI (MOLT-4 leukemia) was greater than 100 µM and the TGI (ACHN renal) was greater than 100 µM. The TGI (MALME-3M melanoma) was greater than 100 µM, the TGI (OVCAR-3 ovarian) was greater than 100 µM and the TGI (NCI-H23 lung) was greater than 100 µM. For the same molecule, the TGI (DMS 273 small cell lung) was greater than 100 µM, the TGI (UO-31 renal) was greater than 100 µM and the TGI (SNB-75 CNS) was greater than 100 µM. It also gave a TGI (SK-MEL-2 melanoma) greater than 100 µM, a TGI (NCI-H226 lung) greater than 100 µM and a TGI (SN12C renal) greater than 100 µM. The TGI (OVCAR-4 ovarian) was greater than 100 µM, the TGI (DLD-1 colon) was greater than 100 µM and the TGI (XF 498 CNS) was greater than 100 µM. The TGI (SNB-78 CNS) was greater than 100 µM, the TGI (HOP-92 NSCLC) was greater than 100 µM and the TGI (OVCAR-8 ovarian) was greater than 100 µM. It also gave a TGI (HL-60(TB) leukemia) greater than 100 µM, a TGI (SF-268 CNS) greater than 100 µM and a TGI (SNB-19 CNS) greater than 100 µM. For the same molecule, the TGI (SK-MEL-28 melanoma) was greater than 100 µM, the TGI (A549 NSCLC) was greater than 100 µM and the TGI (RXF-631 renal) was greater than 100 µM. It also gave a TGI (LOX IMVI melanoma) greater than 100 µM, a TGI (SF-295 CNS) greater than 100 µM and a TGI (RPMI-8226 leukemia) greater than 100 µM. The TGI (COLO 205 colon) was greater than 100 µM, the TGI (CAKI-1 renal) was greater than 100 µM and the TGI (KM12 colon) was greater than 100 µM. It also gave a TGI (HCT-15 colon) greater than 100 µM, a TGI (IGROV1 ovarian) greater than 100 µM and a TGI (SW-620 colon) greater than 100 µM. It also gave a TGI (UACC-62 melanoma) greater than 100 µM, a TGI (LXFL 529 NSCLC) greater than 100 µM and a TGI (UACC-257 melanoma) greater than 100 µM. For the same molecule, the TGI (KM20L2 colon) was greater than 100 µM, the TGI (U251 CNS) was greater than 100 µM and the TGI (HCT-116 colon) was greater than 100 µM. For the same molecule, the TGI (NCI-H460 lung) was greater than 100 µM, the TGI (M14 melanoma) was greater than 100 µM and the TGI (SK-OV-3 ovarian) was greater than 100 µM. It also gave a TGI (OVCAR-5 ovarian) greater than 100 µM, a TGI (TK-10 renal) greater than 100 µM and a TGI (SF-539 CNS) greater than 100 µM. For the same molecule, the TGI (NCI-H522 lung) was greater than 100 µM and the TGI (HT29 colon) was greater than 100 µM.

Molecule `COc1ccc(C(Cc2cc(OC)c(OC)c(OC)c2)C(=O)O)cc1` (centres undefined) has a TGI (K-562 leukemia) greater than 100 µM, a TGI (HOP-62 NSCLC) greater than 100 µM and a TGI (HCC-2998 colon) greater than 100 µM. It also gave a TGI (786-0 renal) greater than 100 µM, a TGI (ACHN renal) greater than 100 µM and a TGI (MALME-3M melanoma) greater than 100 µM. It also gave a TGI (OVCAR-3 ovarian) of 84.7 µM, a TGI (DMS 114 small cell lung) greater than 100 µM and a TGI (NCI-H23 lung) greater than 100 µM. For the same molecule, the TGI (DMS 273 small cell lung) was greater than 100 µM, the TGI (UO-31 renal) was greater than 100 µM and the TGI (EKVX NSCLC) was greater than 100 µM. For the same molecule, the TGI (SNB-75 CNS) was 65.2 µM, the TGI (SK-MEL-2 melanoma) was greater than 100 µM and the TGI (SK-MEL-5 melanoma) was greater than 100 µM. For the same molecule, the TGI (NCI-H226 lung) was greater than 100 µM, the TGI (A498 renal) was greater than 100 µM and the TGI (SN12C renal) was greater than 100 µM. For the same molecule, the TGI (OVCAR-4 ovarian) was greater than 100 µM, the TGI (DLD-1 colon) was greater than 100 µM and the TGI (XF 498 CNS) was greater than 100 µM. The TGI (SNB-78 CNS) was greater than 100 µM, the TGI (OVCAR-8 ovarian) was greater than 100 µM and the TGI (SF-268 CNS) was greater than 100 µM. The TGI (SNB-19 CNS) was greater than 100 µM, the TGI (SK-MEL-28 melanoma) was greater than 100 µM and the TGI (A549 NSCLC) was greater than 100 µM. It also gave a TGI (CCRF-CEM leukemia) greater than 100 µM, a TGI (RXF-631 renal) greater than 100 µM and a TGI (LOX IMVI melanoma) greater than 100 µM. It also gave a TGI (SF-295 CNS) of 84.8 µM, a TGI (RPMI-8226 leukemia) greater than 100 µM and a TGI (COLO 205 colon) greater than 100 µM. The TGI (CAKI-1 renal) was greater than 100 µM, the TGI (KM12 colon) was greater than 100 µM and the TGI (HCT-15 colon) was greater than 100 µM. The TGI (IGROV1 ovarian) was greater than 100 µM, the TGI (SW-620 colon) was greater than 100 µM and the TGI (UACC-62 melanoma) was greater than 100 µM. It also gave a TGI (UACC-257 melanoma) greater than 100 µM, a TGI (KM20L2 colon) greater than 100 µM and a TGI (U251 CNS) greater than 100 µM. The TGI (HCT-116 colon) was greater than 100 µM, the TGI (NCI-H460 lung) was greater than 100 µM and the TGI (M14 melanoma) was greater than 100 µM. For the same molecule, the TGI (SK-OV-3 ovarian) was greater than 100 µM, the TGI (OVCAR-5 ovarian) was greater than 100 µM and the TGI (HOP-18 NSCLC) was greater than 100 µM. The TGI (TK-10 renal) was greater than 100 µM, the TGI (SF-539 CNS) was greater than 100 µM and the TGI (HT29 colon) was greater than 100 µM. The TGI (M19-MEL melanoma) was greater than 100 µM.
